Values quoted from earlier work as cited in patent US20220361462A1, “ANIMAL MODEL FOR NEURODEGENERATIVE DISORDERS” (NEURO-BIO LTD, priority 2019, published 2022).
No end group written: not given here.

System: cell lines
Details: previously shown by the inventors

For “NBP-14: candidate modulator of the α7-nAChR, the cyclized form of T14, cyclic SEQ ID No:4 (AEFHRWSSYMVHWK; not fully specified; also: cyclised, mode not given here; listed as Homo sapiens)”, the “effect on AD-like phenotype promoted by AChE-derived peptide on cell lines” value is given as “blocked”.
